Experiments:
[1] = test system: chickweed; experiment: Test Example 5: herbicidal effect by foliage application, plastic box (Table 20, symbol P); type: in vivo, common chickweed (Stellaria media)
In short: (§1)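 Foliar spray test: emulsion formulation diluted in water to a set application rate, sprayed onto 14-day-old plants raised in diluvial soil at 25° C to 30° C under glass. Both herbicidal effect and crop effect rated visually three weeks later.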

[2] = test system: barnyard grass; experiment: Test Example 3: herbicidal effect by foliage application, Wagner pot (Table 18, symbol H); type: in vivo, barnyard grass (Echinochloa crus-galli); conditions: 320 g/ha
In short: (§2)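 Plants were sown in alluvial soil held under 0.1–0.5 cm standing water and grown 14 days in a greenhouse at 25–30 °C. An emulsifiable formulation, water-diluted to the set dose, was then sprayed onto the foliage, and effects were scored three weeks later using previously defined criteria.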

[3] = test system: windgrass; experiment: Test Example 5: herbicidal effect by foliage application, plastic box (Table 20, symbol L); type: in vivo, windgrass (Apera spica-venti)
In short: as §1

[4] = test system: blackgrass; experiment: Test Example 4: herbicidal effect by soil treatment (Table 19, symbol J); type: in vivo, blackgrass (Alopecurus myosuroides)
In short: (§3)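 Herbicidal effect was rated 3 weeks after treatment, using the scoring criteria of an earlier test. The compound, formulated as an emulsion and diluted in water to a set herbicide amount, had been sprayed uniformly on soil over freshly sown seeds. Growth took place in a greenhouse at 25° C. to 30° C.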

[5] = test system: false cleavers; experiment: Test Example 4: herbicidal effect by soil treatment (Table 19, symbol Q); type: in vivo, false cleavers (Galium spurium)
In short: as §3

[6] = test system: green foxtail; experiment: Test Example 4: herbicidal effect by soil treatment (Table 19, symbol G); type: in vivo, green foxtail (Setaria viridis)
In short: as §3

[7] = test system: persian speedwell; experiment: Test Example 4: herbicidal effect by soil treatment (Table 19, symbol R); type: in vivo, Persian speedwell (Veronica persica); conditions: AAH 320 g/ha
In short: as §3

[8] = test system: velvetleaf; experiment: Test Example 5: herbicidal effect by foliage application, plastic box (Table 20, symbol M); type: in vivo, velvetleaf (Abutilon theophrasti)
In short: as §1

[9] = test system: redroot pigweed; experiment: Test Example 5: herbicidal effect by foliage application, plastic box (Table 20, symbol N); type: in vivo, redroot pigweed (Amaranthus retroflexus)
In short: as §1

[10] = test system: chickweed; experiment: Test Example 4: herbicidal effect by soil treatment (Table 19, symbol P); type: in vivo, common chickweed (Stellaria media); conditions: AAH 320 g/ha
In short: as §3

[11] = test system: rice flat sedge; experiment: Test Example 3: herbicidal effect by foliage application, Wagner pot (Table 18, symbol E); type: in vivo, rice flat sedge (Cyperus iria); conditions: 320 g/ha
In short: as §2

[12] = test system: persian speedwell; experiment: Test Example 5: herbicidal effect by foliage application, plastic box (Table 20, symbol R); type: in vivo, Persian speedwell (Veronica persica)
In short: as §1

[13] = test system: Italian ryegrass; experiment: Test Example 5: herbicidal effect by foliage application, plastic box (Table 20, symbol K); type: in vivo, Italian ryegrass (Lolium multiflorum)
In short: as §1

[14] = test system: southern crabgrass; experiment: Test Example 5: herbicidal effect by foliage application, plastic box (Table 20, symbol F); type: in vivo, southern crabgrass (Digitaria ciliaris)
In short: as §1

[15] = test system: Italian ryegrass; experiment: Test Example 4: herbicidal effect by soil treatment (Table 19, symbol K); type: in vivo, Italian ryegrass (Lolium multiflorum)
In short: as §3

[16] = test system: Chinese sprangletop; experiment: Test Example 3: herbicidal effect by foliage application, Wagner pot (Table 18, symbol D); type: in vivo, chinese sprangletop (Leptochloa chinensis); conditions: 320 g/ha
In short: as §2

[17] = test system: wild oat; experiment: Test Example 5: herbicidal effect by foliage application, plastic box (Table 20, symbol I); type: in vivo, wild oat (Avena fatua)
In short: as §1

[18] = test system: green foxtail; experiment: Test Example 5: herbicidal effect by foliage application, plastic box (Table 20, symbol G); type: in vivo, green foxtail (Setaria viridis)
In short: as §1

[19] = test system: lambsquarters; experiment: Test Example 5: herbicidal effect by foliage application, plastic box (Table 20, symbol O); type: in vivo, lambsquarters (Chenopodium album)
In short: as §1

[20] = test system: redroot pigweed; experiment: Test Example 4: herbicidal effect by soil treatment (Table 19, symbol N); type: in vivo, redroot pigweed (Amaranthus retroflexus)
In short: as §3

[21] = test system: barnyard grass; experiment: Test Example 5: herbicidal effect by foliage application, plastic box (Table 20, symbol H); type: in vivo, barnyard grass (Echinochloa crus-galli)
In short: as §1

[22] = test system: wild oat; experiment: Test Example 4: herbicidal effect by soil treatment (Table 19, symbol I); type: in vivo, wild oat (Avena fatua)
In short: as §3

[23] = test system: southern crabgrass; experiment: Test Example 4: herbicidal effect by soil treatment (Table 19, symbol F); type: in vivo, southern crabgrass (Digitaria ciliaris)
In short: as §3

[24] = test system: lambsquarters; experiment: Test Example 4: herbicidal effect by soil treatment (Table 19, symbol O); type: in vivo, lambsquarters (Chenopodium album)
In short: as §3

[25] = test system: velvetleaf; experiment: Test Example 4: herbicidal effect by soil treatment (Table 19, symbol M); type: in vivo, velvetleaf (Abutilon theophrasti)
In short: as §3

[26] = test system: blackgrass; experiment: Test Example 5: herbicidal effect by foliage application, plastic box (Table 20, symbol J); type: in vivo, blackgrass (Alopecurus myosuroides)
In short: as §1

[27] = test system: barnyard grass; experiment: Test Example 4: herbicidal effect by soil treatment (Table 19, symbol H); type: in vivo, barnyard grass (Echinochloa crus-galli)
In short: as §3

[28] = test system: windgrass; experiment: Test Example 4: herbicidal effect by soil treatment (Table 19, symbol L); type: in vivo, windgrass (Apera spica-venti); conditions: amount of applied herbicide 320 g/ha
In short: as §3

[29] = foliage application, AAH 320 g/ha, three weeks after application
[30] = 320 g/ha, foliage application after 14-day growth, evaluated three weeks after application
[31] = amount of applied herbicide 320 g/ha

COc1nn(C)c(=O)c(-c2c(-c3ccc(F)c(C)c3)sc3ccccc23)c1O [1-174]
P: chickweed, herbicidal effect [1, 29]: 5 (Herbicidal rate of 90% or more (almost completely withered))
herbicidal effect on H (barnyard grass), rating 0-5 [2]: 1 (Herbicidal rate of 5% or more and less than 20%)
L: windgrass, herbicidal effect [3, 29]: 0 (Herbicidal rate of 5% or less (almost no effect))
J: blackgrass, herbicidal effect rating ([4]; AAH 320 g/ha): 0 (Herbicidal rate of 5% or less (almost no effect))
Q: false cleavers, herbicidal effect rating ([5]; AAH 320 g/ha): 0 (Herbicidal rate of 5% or less (almost no effect))
G: green foxtail, herbicidal effect rating ([6]; AAH 320 g/ha): 0 (Herbicidal rate of 5% or less (almost no effect))
R: persian speedwell, herbicidal effect rating [7]: 4 (Herbicidal rate of 70% or more and less than 90%)
M: velvetleaf, herbicidal effect [8, 29]: 4 (Herbicidal rate of 70% or more and less than 90%)
N: redroot pigweed, herbicidal effect [9, 29]: 0 (Herbicidal rate of 5% or less (almost no effect))
P: chickweed, herbicidal effect rating [10]: 5 (Herbicidal rate of 90% or more (almost completely withered))
herbicidal effect on E (rice flat sedge), rating 0-5 [11]: 3 (Herbicidal rate of 40% or more and less than 70%)
R: persian speedwell, herbicidal effect [12, 29]: 4 (Herbicidal rate of 70% or more and less than 90%)
K: Italian ryegrass, herbicidal effect [13, 29]: 1 (Herbicidal rate of 5% or more and less than 20%)
F: southern crabgrass, herbicidal effect [14, 29]: 0 (Herbicidal rate of 5% or less (almost no effect))
K: Italian ryegrass, herbicidal effect rating ([15]; AAH 320 g/ha): 0 (Herbicidal rate of 5% or less (almost no effect))
herbicidal effect on D (Chinese sprangletop), rating 0-5 [16]: 0 (Herbicidal rate of 5% or less (almost no effect))
I: wild oat, herbicidal effect [17, 29]: 0 (Herbicidal rate of 5% or less (almost no effect))
G: green foxtail, herbicidal effect [18, 29]: 2 (Herbicidal rate of 20% or more and less than 40%)
O: lambsquarters, herbicidal effect [19, 29]: 2 (Herbicidal rate of 20% or more and less than 40%)
N: redroot pigweed, herbicidal effect rating ([20]; AAH 320 g/ha): 0 (Herbicidal rate of 5% or less (almost no effect))
H: barnyard grass, herbicidal effect [21, 29]: 0 (Herbicidal rate of 5% or less (almost no effect))
I: wild oat, herbicidal effect rating ([22]; AAH 320 g/ha): 0 (Herbicidal rate of 5% or less (almost no effect))
F: southern crabgrass, herbicidal effect rating ([23]; AAH 320 g/ha): 0 (Herbicidal rate of 5% or less (almost no effect))
O: lambsquarters, herbicidal effect rating ([24]; AAH 320 g/ha): 0 (Herbicidal rate of 5% or less (almost no effect))
M: velvetleaf, herbicidal effect rating ([25]; AAH 320 g/ha): 0 (Herbicidal rate of 5% or less (almost no effect))
J: blackgrass, herbicidal effect [26, 29]: 0 (Herbicidal rate of 5% or less (almost no effect))
H: barnyard grass, herbicidal effect rating ([27]; AAH 320 g/ha): 0 (Herbicidal rate of 5% or less (almost no effect))

Cc1nn(C)c(=O)c(-c2c(-c3ccc(Cl)cc3)sc3c(Cl)cccc23)c1O [4-017]
herbicidal effect on P: chickweed (evaluation grade 0-5) [1, 30]: 5 (Herbicidal rate of 90% or more (almost completely withered))
herbicidal effect on barnyard grass (H) [2]: 4 (Herbicidal rate of 70% or more and less than 90%)
herbicidal effect on L: windgrass (evaluation grade 0-5) [3, 30]: 4 (Herbicidal rate of 70% or more and less than 90%)
Herbicidal effect by soil treatment, J: blackgrass [4, 31]: 0 (Herbicidal rate of 5% or less (almost no effect))
Herbicidal effect by soil treatment, Q: false cleavers [5, 31]: 0 (Herbicidal rate of 5% or less (almost no effect))
Herbicidal effect by soil treatment, G: green foxtail [6, 31]: 0 (Herbicidal rate of 5% or less (almost no effect))
herbicidal effect on M: velvetleaf (evaluation grade 0-5) [8, 30]: 4 (Herbicidal rate of 70% or more and less than 90%)
herbicidal effect on N: redroot pigweed (evaluation grade 0-5) [9, 30]: 5 (Herbicidal rate of 90% or more (almost completely withered))
herbicidal effect on rice flat sedge (E) [11]: 3 (Herbicidal rate of 40% or more and less than 70%)
herbicidal effect on R: persian speedwell (evaluation grade 0-5) [12, 30]: 4 (Herbicidal rate of 70% or more and less than 90%)
herbicidal effect on K: Italian ryegrass (evaluation grade 0-5) [13, 30]: 1 (Herbicidal rate of 5% or more and less than 20%)
Herbicidal effect by soil treatment, L: windgrass [28]: 2 (Herbicidal rate of 20% or more and less than 40%)
herbicidal effect on F: southern crabgrass (evaluation grade 0-5) [14, 30]: 0 (Herbicidal rate of 5% or less (almost no effect))
Herbicidal effect by soil treatment, K: Italian ryegrass [15, 31]: 0 (Herbicidal rate of 5% or less (almost no effect))
herbicidal effect on Chinese sprangletop (D) [16]: 0 (Herbicidal rate of 5% or less (almost no effect))
herbicidal effect on I: wild oat (evaluation grade 0-5) [17, 30]: 3 (Herbicidal rate of 40% or more and less than 70%)
herbicidal effect on G: green foxtail (evaluation grade 0-5) [18, 30]: 0 (Herbicidal rate of 5% or less (almost no effect))
herbicidal effect on O: lambsquarters (evaluation grade 0-5) [19, 30]: 2 (Herbicidal rate of 20% or more and less than 40%)
Herbicidal effect by soil treatment, N: redroot pigweed [20, 31]: 0 (Herbicidal rate of 5% or less (almost no effect))
herbicidal effect on H: barnyard grass (evaluation grade 0-5) [21, 30]: 0 (Herbicidal rate of 5% or less (almost no effect))
Herbicidal effect by soil treatment, I: wild oat [22, 31]: 0 (Herbicidal rate of 5% or less (almost no effect))
Herbicidal effect by soil treatment, F: southern crabgrass [23, 31]: 0 (Herbicidal rate of 5% or less (almost no effect))
Herbicidal effect by soil treatment, O: lambsquarters [24, 31]: 0 (Herbicidal rate of 5% or less (almost no effect))
Herbicidal effect by soil treatment, M: velvetleaf [25, 31]: 0 (Herbicidal rate of 5% or less (almost no effect))
herbicidal effect on J: blackgrass (evaluation grade 0-5) [26, 30]: 3 (Herbicidal rate of 40% or more and less than 70%)
Herbicidal effect by soil treatment, H: barnyard grass [27, 31]: 0 (Herbicidal rate of 5% or less (almost no effect))
